In one assay the target is cholera toxin (Vibrio cholerae serotype O1, UniProt P01556). Nature of the assay: biochemical. The conditions noted are these: read-out: inhibition of binding of cholera toxin to ganglioside GD1b.
Assay [1] deals with heat-labile enterotoxin from E. coli (Escherichia coli, UniProt P0CK94). Format: binding. The conditions noted are these: at the concentration employed in the assay.
Chain of heat-labile enterotoxin from E. coli (P0CK94 whole entry, looked up): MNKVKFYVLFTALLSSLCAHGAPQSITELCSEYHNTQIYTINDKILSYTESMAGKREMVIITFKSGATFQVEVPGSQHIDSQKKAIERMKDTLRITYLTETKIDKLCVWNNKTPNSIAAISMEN

Chain of cholera toxin (P01556 22-124 limits assumed): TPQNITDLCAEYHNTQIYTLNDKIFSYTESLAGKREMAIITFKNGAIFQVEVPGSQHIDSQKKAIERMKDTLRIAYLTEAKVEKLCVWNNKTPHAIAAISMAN

As for `CC(N)CC(C)S[C@@H]1O[C@H](CO)[C@H](O)[C@H](O)[C@H]1O` (stereo partly drawn) [Example B8, 4-Aminopent-2-yl 1-Thio-β-D-galactopyranoside], at cholera toxin, the inhibition – broadly, the drop in the measured response relative to a control, in per cent – at 1000 µg/mL is not below 20%. On to `O=C(O)[C@H](Cc1c[nH]c2ccccc12)NC1CCCC(S[C@@H]2O[C@H](CO)[C@H](O)[C@H](O)[C@H]2O)C1` (stereo partly drawn) [Example I10, Nα-[3-(1-Thio-β-D-galactopyranosyl)cyclohex-1-yl]-L-tryptophan], for which the inhibition at 1000 µg/mL at cholera toxin is less than 20%.

For the molecule `CC(=O)NC1CCCC1S[C@@H]1O[C@H](CO)[C@H](O)[C@H](O)[C@H]1O` (stereo partly drawn) [Example C1, 2-Acetamidocyclopent-1-yl 1-Thio-β-D-galactopyranoside], the inhibition at 1000 µg/mL on cholera toxin is less than 20%.

With `CC(CC(C)S[C@@H]1O[C@H](CO)[C@H](O)[C@H](O)[C@H]1O)N[C@@H](Cc1c[nH]c2ccccc12)C(=O)O` (stereo partly drawn) [Example I8, Nα-[4-(1-Thio-β-D-galactopyranosyl)pent-2-yl]-L-tryptophan], the inhibition at 1000 µg/mL on cholera toxin was less than 20%. Regarding `CC(C)C[C@H](NC1CCC(C)(C)C(S[C@@H]2O[C@H](CO)[C@H](O)[C@H](O)[C@H]2O)C1)C(=O)O` (stereo partly drawn) [Example G9, Nα-[4,4-Dimethyl-3-(1-thio-β-D-galactopyranosyl)-cyclohex-1-yl]-L-leucine], the inhibition at 1000 µg/mL at cholera toxin was less than 20%. `CC1(C)CCC(S[C@@H]2O[C@H](CO)[C@H](O)[C@H](O)[C@H]2O)CC1NCC(=O)O` (stereo partly drawn) [Example E11, Nα-[5-(1-Thio-β-D-galactopyranosyl)-2 ,2-dimethylcyclohex-1-yl]glycine]: in assay [1], the “inhibition of binding of heat-labile enterotoxin to ganglioside GD1b” value is given as “at least 20%”.

In the case of `N=C(N)NCCC[C@H](NC1CCCC(S[C@@H]2O[C@H](CO)[C@H](O)[C@H](O)[C@H]2O)C1)C(=O)O` (stereo partly drawn) [Example J10, Nα-[3-(1-Thio-β-D-galactopyranosyl)cyclohex-1-yl]-L-arginine], the inhibition at 1000 µg/mL at cholera toxin was less than 20%. On the same count and under the same terms, under `CC(C)C[C@H](NC1CCCC(S[C@@H]2O[C@H](CO)[C@H](O)[C@H](O)[C@H]2O)C1)C(=O)O` (stereo partly drawn) [Example G10, Nα-[3-(1-Thio-β-D-galactopyranosyl)cyclohex-1-yl]-L-leucine] stands less than 20%; under `CC1CCC(NC2CC(S[C@@H]3O[C@H](CO)[C@H](O)[C@H](O)[C@H]3O)C(C)(C)C2)CC1` (stereo partly drawn) [Example B6L, 2,2-Dimethyl-4-(4-methylcyclohex-1-ylamino)-cyclopent-1-yl 1-Thio-β-D-galactopyranoside], not below 20%; under `CC(CC(C)S[C@@H]1O[C@H](CO)[C@H](O)[C@H](O)[C@H]1O)NC(=O)c1ccccc1C(=O)O` (some centres unmarked) [Example D8], not below 20%. As to `O=C(O)CNC1CCCC(S[C@@H]2O[C@H](CO)[C@H](O)[C@H](O)[C@H]2O)C1` (stereo partly drawn) [Example E10, Nα-[3-(1-Thio-β-D-galactopyranosyl)cyclohex-1-yl]glycine], the “inhibition of binding of heat-labile enterotoxin to ganglioside GD1b” value in assay [1] was “at least 20%”. `N=C(N)NCCC[C@H](NC1CCCC1S[C@@H]1O[C@H](CO)[C@H](O)[C@H](O)[C@H]1O)C(=O)O` (stereo partly drawn) [Example J1, Nα-[2-(1-Thio-β-D-galactopyranosyl)cyclopent-1-yl]-L-arginine]: the inhibition at 1000 µg/mL at cholera toxin was not below 20%. Turning to `CC(=O)NC(C)CC(S[C@@H]1O[C@H](CO)[C@H](O)[C@H](O)[C@H]1O)c1ccccc1` (stereo partly drawn) [Example C3, 3-Acetamido-1-phenylbut-1-yl 1-Thio-β-D-galactopyranoside], the inhibition at 1000 µg/mL at cholera toxin is less than 20%. Consider `O=C(O)CNC1CCCCC(S[C@@H]2O[C@H](CO)[C@H](O)[C@H](O)[C@H]2O)C1` (stereo partly drawn) [Example E5, Nα-[3-(1-Thio-β-D-galactopyranosyl)cyclohept-1-yl]glycine], for which the inhibition at 1000 µg/mL on cholera toxin was less than 20%. On the same count and under the same terms, with `CC(=O)NC(C)CC(C)S[C@@H]1O[C@H](CO)[C@H](O)[C@H](O)[C@H]1O` (stereo partly drawn) [Example C8, 4-Acetamidopent-2-yl 1-Thio-β-D-galactopyranoside] the figure was less than 20%; with `CC(O)CC(S[C@@H]1O[C@H](CO)[C@H](O)[C@H](O)[C@H]1O)c1ccccc1` (stereo partly drawn) [Example A3, 3-Hydroxy-1-phenylbut-1-yl 1-Thio-β-D-galactopyranoside], less than 20%; with `N=C(N)NCCC[C@H](NC1CCCCC(S[C@@H]2O[C@H](CO)[C@H](O)[C@H](O)[C@H]2O)C1)C(=O)O` (stereo partly drawn) [Example J5, Nα-[3-(1-Thio-β-D-galactopyranosyl)cyclohept-1-yl]-L-arginine], less than 20%. On the same count and under the same terms, with `CNC1CC(S[C@@H]2O[C@H](CO)[C@H](O)[C@H](O)[C@H]2O)C(C)(C)C1` (stereo partly drawn) [Example B6A, 2,2-Dimethyl-4-(methylamino)-cyclopent-1-yl 1-Thio-β-D-galactopyranoside] the figure was not below 20%; with `CC(C)C[C@H](NC1CCC(S[C@@H]2O[C@H](CO)[C@H](O)[C@H](O)[C@H]2O)C1)C(=O)O` (stereo partly drawn) [Example G7, Nα-[3-(1-Thio-β-D-galactopyranosyl)cyclopent-1-yl]-L-leucine], less than 20%. On the same count and under the same terms, under `CC1(C)CC(N[C@@H](CCCNC(=N)N)C(=O)O)CC1S[C@@H]1O[C@H](CO)[C@H](O)[C@H](O)[C@H]1O` (stereo partly drawn) [Example J6, Nα-[4,4-Dimethyl-3-(1-thio-β-D-galactopyranosyl)-cyclopent-1-yl]-L-arginine] stands less than 20%; under `CC(CC(S[C@@H]1O[C@H](CO)[C@H](O)[C@H](O)[C@H]1O)c1ccccc1)N[C@@H](CCCNC(=N)N)C(=O)O` (stereo partly drawn) [Example J3, Nα-[4-Phenyl-4-(1-Thio-β-D-galactopyranosyl)but-2-yl]-L-arginine], not below 20%; under `CC(C)C[C@H](NC(C)CC(C)S[C@@H]1O[C@H](CO)[C@H](O)[C@H](O)[C@H]1O)C(=O)O` (stereo partly drawn) [Example G8, Nα-[4-(1-Thio-β-D-galactopyranosyl)pent-2-yl]-L-leucine], less than 20%. Regarding `CC(C)C[C@H](NC(C)CC(S[C@@H]1O[C@H](CO)[C@H](O)[C@H](O)[C@H]1O)c1ccccc1)C(=O)O` (stereo partly drawn) [Example G3, Nα-[4-Phenyl-4-(1-thio-β-galactopyranosyl)but-2-yl]-L-leucine], at cholera toxin, the inhibition at 1000 µg/mL was less than 20%. Same read-out and setting: under `CC1(C)CC(N)CC1S[C@@H]1O[C@H](CO)[C@H](O)[C@H](O)[C@H]1O` (stereo partly drawn) [Example B6, 2,2-Dimethyl-4aminocyclopent-1-yl 1-Thio-β-D-galactopyranoside] stands not below 20%.

On to `CC1CCCC(NC2CC(S[C@@H]3O[C@H](CO)[C@H](O)[C@H](O)[C@H]3O)C(C)(C)C2)C1` (stereo partly drawn) [Example B6T, 2,2-Dimethyl-4-(3-methylcyclohex-1-ylamino)-cyclopent-1-yl 1-Thio-β-D-galactopyranoside], for which the inhibition at 1000 µg/mL on cholera toxin is not below 20%. Same read-out and setting: with `CC1(C)CCC(N[C@@H](Cc2c[nH]c3ccccc23)C(=O)O)CC1S[C@@H]1O[C@H](CO)[C@H](O)[C@H](O)[C@H]1O` (stereo partly drawn) [Example I9, Nα-[4,4-Dimethyl-3-(1-thio-β-D-galactopyranosyl)-cyclohex-1-yl]-L-tryptophan] the figure was less than 20%. In the case of `CC1(C)CCC(NCCC(=O)O)CC1S[C@@H]1O[C@H](CO)[C@H](O)[C@H](O)[C@H]1O` (stereo partly drawn) [Example F9, Nβ-[4,4Dimethyl-3-(1-thio-β-D-galactopyranosyl)-cyclohex-1-yl]-β-alanime], at cholera toxin, the inhibition at 1000 µg/mL was less than 20%. Same read-out and setting: under `CC(CC(C)S[C@@H]1O[C@H](CO)[C@H](O)[C@H](O)[C@H]1O)NCC(=O)O` (stereo partly drawn) [Example E8, Nα-[4-(1-Thio-β-D-galactopyranosyl)pent-2-yl]glycine] stands less than 20%. As to `CC(CC(S[C@@H]1O[C@H](CO)[C@H](O)[C@H](O)[C@H]1O)c1ccccc1)NC(=O)c1ccccc1C(=O)O` (stereo partly drawn) [Example D3, 3-(2-Carboxybenzamido)-1-phenylbut-1-yl 1-Thio-β-D-galactopyranoside], on cholera toxin, the inhibition at 1000 µg/mL is less than 20%.

For the molecule `O=C(O)c1ccccc1C(=O)NC1CCCC1S[C@@H]1O[C@H](CO)[C@H](O)[C@H](O)[C@H]1O` (stereo partly drawn) [Example D1, 2-(2-Carboxybenzamido)cyclopent-1-yl 1-Thio-β-D-galactopyranoside], at cholera toxin, the inhibition at 1000 µg/mL is not below 20%.

Take `CC1CCC(NC2CC(S[C@@H]3O[C@H](CO)[C@H](O)[C@H](O)[C@H]3O)C(C)(C)C2)C1` (stereo partly drawn) [Example B6Q, 2,2-Dimethyl-4-(3-methylcyclopent-1-ylamino)-cyclopent-1-yl 1-Thio-β-D-galactopyranoside]: the inhibition at 1000 µg/mL at cholera toxin was not below 20%.

On to `CC(CC(C)S[C@@H]1O[C@H](CO)[C@H](O)[C@H](O)[C@H]1O)N[C@@H](CCCNC(=N)N)C(=O)O` (stereo partly drawn) [Example J8, Nα-[4-(1-Thio-β-D-galactopyranosyl)pent-2-yl]-L-arginine], for which, at cholera toxin, the inhibition at 1000 µg/mL was less than 20%. Regarding `CC(N)CC(S[C@@H]1O[C@H](CO)[C@H](O)[C@H](O)[C@H]1O)c1ccccc1` (stereo partly drawn) [Example B3, 3-Amino-1-phenylbut-1-yl 1-Thio-β-D-galactopyranoside], the inhibition at 1000 µg/mL at cholera toxin is less than 20%. For the molecule `CC1(C)CC(NCCC(=O)O)CC1S[C@@H]1O[C@H](CO)[C@H](O)[C@H](O)[C@H]1O` (stereo partly drawn) [Example F6, Nβ-[4,4-Dimethyl-3-(1-thio-β-D-galactopyranosyl)-cyclopent-1-yl]-βalanine], the inhibition at 1000 µg/mL on cholera toxin is less than 20%.

As for `CC1(C)CC(O)CC1S[C@@H]1O[C@H](CO)[C@H](O)[C@H](O)[C@H]1O` (stereo partly drawn) [Example A6, 2,2-Dimethyl-4-hydroxycyclopent-1-yl 1-Thio-β-D-galactopyranoside], the inhibition at 1000 µg/mL at cholera toxin is less than 20%. On the same count and under the same terms, with `CC(CC(S[C@@H]1O[C@H](CO)[C@H](O)[C@H](O)[C@H]1O)c1ccccc1)N[C@@H](Cc1c[nH]c2ccccc12)C(=O)O` (stereo partly drawn) [Example I3, Nα-[4-Phenyl-4-(1-thio-β-D-galactopyranosyl)but-2-yl]-L-tryptophan] the figure was not below 20%; with `CC(O)CC(C)S[C@@H]1O[C@H](CO)[C@H](O)[C@H](O)[C@H]1O` (stereo partly drawn) [Example A8, 4Hydroxypent-2-yl 1-Thio-β-D-galactopyranoside], less than 20%. Still for that read-out and setting: with `CC1(C)CCC(NCC(=O)O)CC1S[C@@H]1O[C@H](CO)[C@H](O)[C@H](O)[C@H]1O` (stereo partly drawn) [Example E9, Nα-[4,4-Dimethyl-3-(1-thio-β-D-galactopyranosyl)-cyclohex-1-yl]glycine] the figure was less than 20%.

The values are drawn from patent US5968907A (priority 1997, dated 1999).
